Measurements from patent US9988420B2, “Cytotoxic peptides and conjugates thereof” (priority 2013, dated 2018).
Starred links: 1 amine or outer side, 2 acyl side, 3 side chain; linkers in the order of their positions; H or OH if unused. Non-standard residues stand in square brackets, D forms with d. Residues, ends and D or L forms follow the SMILES beside them. *: point of attachment. Dolaproine = CO[C@@H]([C@@H]1CCCN1)[C@@H](C)C(=O)O; X1 = O=C([C@@H]1[C@H]2CC[C@H](C2)N1[*:1])[*:2]; Dil = CC[C@H](C)[C@H](NC)[C@@H](CC(=O)O)OC; X2 = CN1[C@@H]2CC[C@@H](C2)[C@H]1C(=O)*; Phe(ol) = N[C@H](CO)Cc1ccccc1

Columns and labels:
Assay in all cases: In vitro cell killing assay of payloads (cell proliferation, Cell-Titer-Glo)
Format in all cases: cell-based
JimT1 cells = details: Homo sapiens, JIMT-1, 120 h; JimT1 cells; Cell-Titer-Glo after five days; Table 2b; read-out: In vitro cell killing (IC50 (nM)) JimT1
H526 cells = details: Homo sapiens, 120 h; NCI-H526 cells; Cell-Titer-Glo after five days; Table 2b; read-out: In vitro cell killing (IC50 (nM)) NCI-H526
A375 cells = details: Homo sapiens, A-375, 120 h, Cell-Titer-Glo after five days
Procedure: (§1) For evaluation of the cell killing potency of the cytotoxic peptides of Formula (I) in vitro, cell proliferation assays were performed in parallel with 8 cell lines: MDA-MB231 clone 16, clone 40, JimT1, HCC1954, H526, KU812, CMK11-5 cells and Jurkat cells. In addition, in vitro, cell proliferation assays were performed using 3 other cell lines: A375, SKBR3 and NCI-N87. All the cell lines are described in more detail in Example 106 and were also used to assess the in vitro potency of immunoconjugates of the invention. The cell proliferation assays were conducted with Cell-Titer-Glo™ (Promega) five days after cells were incubated with various concentrations of ADCs (Riss et al., (2004) Assay Drug Dev Technol. 2:51-62).

NCI-N87 cells = details: Homo sapiens, 120 h, Cell-Titer-Glo after five days
Procedure: as §1

SKBR3 cells = details: Homo sapiens, SK-BR-3, 120 h, Cell-Titer-Glo after five days
Procedure: as §1

HCC1954 cells = details: Homo sapiens, 120 h; HCC1954 cells; Cell-Titer-Glo after five days; Table 2b; read-out: In vitro cell killing (IC50 (nM)) HCC1954

Structure (SMILES) | IC50 (JimT1 cells) [nM] | IC50 (H526 cells) [nM] | IC50 (A375 cells) [nM] | IC50 (NCI-N87 cells) [nM] | IC50 (SKBR3 cells) [nM] | IC50 (HCC1954 cells) [nM]
CC[C@H](C)[C@@H]([C@@H](CC(=O)N1CCC[C@H]1[C@H](OC)[C@@H](C)C(=O)N[C@@H](Cc1ccccc1)c1ncccn1)OC)N(C)C(=O)[C@@H](NC(=O)[C@H]1N[C@@H]2CC[C@H]1C2)C(C)C [Compound 60, (1R,3S,4S)-N-((S)-1-(((3R,4S,5S)-3-Methoxy-1-((S)-2-((1R,2R)-1-methoxy-2-methyl-3-oxo-3-(((S)-2-phenyl-1-(pyrimidin-2-yl)ethyl)amino)propyl)pyrrolidin-1-yl)-5-methyl-1-oxoheptan-4-yl)(methyl)amino)-3-methyl-1-oxobutan-2-yl)-2-azabicyclo[2.2.1]heptane-3-carboxamide] | 4.82 | 8.35 | 0.45 | 0.801 | 0.591 | 
CC[C@H](C)[C@@H]([C@@H](CC(=O)N1CCC[C@H]1[C@H](OC)[C@@H](C)C(=O)N[C@H](COC)Cc1cccc(N)c1)OC)N(C)C(=O)[C@@H](NC(=O)[C@@H]1[C@H]2CC[C@H](C2)N1C)C(C)C [Compound 72, (1R,3S,4S)-N-((S)-1-(((3R,4S,5S)-1-((S)-2-((1R,2R)-3-(((S)-1-(3-Aminophenyl)-3-methoxypropan-2-yl)amino)-1-methoxy-2-methyl-3-oxopropyl)pyrrolidin-1-yl)-3-methoxy-5-methyl-1-oxoheptan-4-yl)(methyl)amino)-3-methyl-1-oxobutan-2-yl)-2-methyl-2-azabicyclo[2.2.1]heptane-3-carboxamide] | 0.224 | 0.287 | 0.189 |  | 0.085 | 0.079
CC[C@H](C)[C@@H]([C@@H](CC(=O)N1CCC[C@H]1[C@H](OC)[C@@H](C)C(=O)N[C@@H](Cc1ccccc1)c1nc(-c2ccccc2)c[nH]1)OC)N(C)C(=O)[C@@H](NC(=O)[C@H]1N[C@@H]2CC[C@H]1C2)C(C)C [Compound 57, (1R,3S,4S)-N-((S)-1-(((3R,4S,5S)-3-Methoxy-1-((S)-2-((1R,2R)-1-methoxy-2-methyl-3-oxo-3-(((S)-2-phenyl-1-(5-phenyl-1H-imidazol-2-yl)ethyl)amino)propyl)pyrrolidin-1-yl)-5-methyl-1-oxoheptan-4-yl)(methyl)amino)-3-methyl-1-oxobutan-2-yl)-2-azabicyclo[2.2.1]heptane-3-carboxamide] | 0.307 | 1.11 | 0.049 | 0.019 | 0.034 | 
CC[C@H](C)[C@@H]([C@@H](CC(=O)N1CCC[C@H]1[C@H](OC)[C@@H](C)C(=O)N[C@@H](Cc1ccccc1)c1cc[nH]n1)OC)N(C)C(=O)[C@@H](NC(=O)[C@H]1N[C@@H]2CC[C@H]1C2)C(C)C [Compound 59, (1R,3S,4S)-N-((S)-1-(((3R,4S,5S)-3-Methoxy-1-((S)-2-((1R,2R)-1-methoxy-2-methyl-3-oxo-3-(((S)-2-phenyl-1-(1H-pyrazol-3-yl)ethyl)amino)propyl)pyrrolidin-1-yl)-5-methyl-1-oxoheptan-4-yl)(methyl)amino)-3-methyl-1-oxobutan-2-yl)-2-azabicyclo[2.2.1]heptane-3-carboxamide] | 37.5 | 19.5 | 3.55 | 4.78 | 3.12 | 
CC[C@H](C)[C@@H]([C@@H](CC(=O)N1CCC[C@H]1[C@H](OC)[C@@H](C)C(=O)N[C@H](CO)Cc1cccc(N)c1)OC)N(C)C(=O)[C@@H](NC(=O)[C@@H]1[C@H]2CC[C@H](C2)N1C)C(C)C [Compound 52, (1R,3S,4S)-N-((S)-1-(((3R,4S,5S)-1-((S)-2-((1R,2R)-3-(((S)-1-(3-Aminophenyl)-3-hydroxypropan-2-yl)amino)-1-methoxy-2-methyl-3-oxopropyl)pyrrolidin-1-yl)-3-methoxy-5-methyl-1-oxoheptan-4-yl)(methyl)amino)-3-methyl-1-oxobutan-2-yl)-2-methyl-2-azabicyclo[2.2.1]heptane-3-carboxamide] |  |  | 0.923 | 0.068 | 0.046 | 0.019
CC[C@H](C)[C@@H]([C@@H](CC(=O)N1CCC[C@H]1[C@H](OC)[C@@H](C)C(=O)N[C@H](COC)Cc1ccccc1)OC)N(C)C(=O)[C@@H](NC(=O)[C@H]1N[C@@H]2CC[C@H]1C2)C(C)C [Compound 58, (1R,3S,4S)-N-((S)-1-(((3R,4S,5S)-3-Methoxy-1-((S)-2-((1R,2R)-1-methoxy-3-(((S)-1-methoxy-3-phenylpropan-2-yl)amino)-2-methyl-3-oxopropyl)pyrrolidin-1-yl)-5-methyl-1-oxoheptan-4-yl)(methyl)amino)-3-methyl-1-oxobutan-2-yl)-2-azabicyclo[2.2.1]heptane-3-carboxamide] | 2.15 | 4.08 | 0.304 | 0.31 | 0.307 | 
CC[C@H](C)[C@@H]([C@@H](CC(=O)N1CCC[C@H]1[C@H](OC)[C@@H](C)C(=O)N[C@H](C)[C@@H](O)c1ccccc1)OC)N(C)C(=O)[C@@H](NC(=O)[C@@H]1[C@H]2CC[C@H](C2)N1C)C(C)C [Compound 74, (1R,3S,4S)-N-((S)-1-(((3R,4S,5S)-1-((S)-2-((1R,2R)-3-(((1S,2R)-1-Hydroxy-1-phenylpropan-2-yl)amino)-1-methoxy-2-methyl-3-oxopropyl)pyrrolidin-1-yl)-3-methoxy-5-methyl-1-oxoheptan-4-yl)(methyl)amino)-3-methyl-1-oxobutan-2-yl)-2-methyl-2-azabicyclo[2.2.1]heptane-3-carboxamide] | 0.587 | 0.962 | 0.571 |  | 0.351 | 0.27
CC[C@H](C)[C@@H]([C@@H](CC(=O)N1CCC[C@H]1[C@H](OC)[C@@H](C)C(=O)N[C@@H](Cc1ccccc1)c1nc(-c2ccccc2)c[nH]1)OC)N(C)C(=O)[C@@H](NC(=O)[C@@H]1[C@H]2CC[C@H](C2)N1C)C(C)C [Compound 66, (1R,3S,4S)-N-((S)-1-(((3R,4S,5S)-3-Methoxy-1-((S)-2-((1R,2R)-1-methoxy-2-methyl-3-oxo-3-(((S)-2-phenyl-1-(4-phenyl-1H-imidazol-2-yl)ethyl)amino)propyl)pyrrolidin-1-yl)-5-methyl-1-oxoheptan-4-yl)(methyl)amino)-3-methyl-1-oxobutan-2-yl)-2-methyl-2-azabicyclo[2.2.1]heptane-3-carboxamide] | 0.052 | 0.126 | 0.05 |  | 0.031 | 0.023
CC[C@H](C)[C@@H]([C@@H](CC(=O)N1CCC[C@H]1[C@H](OC)[C@@H](C)C(=O)N[C@@H](Cc1ccccc1)C(=O)OC)OC)N(C)C(=O)[C@@H](NC(=O)[C@@H]1[C@H]2CC[C@H](C2)N1C)C(C)C [Compound 53, (S)-Methyl 2-((2R,3R)-3-((S)-1-((3R,4S,5S)-4-((S)-N,3-dimethyl-2-((1R,3S,4S)-2-methyl-2-azabicyclo[2.2.1]heptane-3-carboxamido)butanamido)-3-methoxy-5-methylheptanoyl)pyrrolidin-2-yl)-3-methoxy-2-methylpropanamido)-3-phenylpropanoate] (X2-V[Dil][Dolaproine]F-OMe) | 0.011 | 0.121 | 0.0121 |  | 0.008 | 0.009
CC[C@H](C)[C@@H]([C@@H](CC(=O)N1CCC[C@H]1[C@H](OC)[C@@H](C)C(=O)N[C@H](CO)Cc1ccccc1)OC)N(C)C(=O)[C@@H](NC(=O)[C@H]1N[C@@H]2CC[C@H]1C2)C(C)C [Compound 50, (1R,3S,4S)-N-((S)-1-(((3R,4S,5S)-1-((S)-2-((1R,2R)-3-(((S)-1-Hydroxy-3-phenylpropan-2-yl)amino)-1-methoxy-2-methyl-3-oxopropyl)pyrrolidin-1-yl)-3-methoxy-5-methyl-1-oxoheptan-4-yl)(methyl)amino)-3-methyl-1-oxobutan-2-yl)-2-azabicyclo[2.2.1]heptane-3-carboxamide] (H-[X1]V[Dil][Dolaproine][Phe(ol)]) | 57.6 | 52.4 | 5.16 | 10.2 | 5.66 | 
CC[C@H](C)[C@@H]([C@@H](CC(=O)N1CCC[C@H]1[C@H](OC)[C@@H](C)C(=O)N[C@H](Cc1ccccc1)c1ncccn1)OC)N(C)C(=O)[C@@H](NC(=O)[C@H]1N[C@@H]2CC[C@H]1C2)C(C)C [Compound 61, (1R,3S,4S)-N-((S)-1-(((3R,4S,5S)-3-methoxy-1-((S)-2-((1R,2R)-1-methoxy-2-methyl-3-oxo-3-(((R)-2-phenyl-1-(pyrimidin-2-yl)ethyl)amino)propyl)pyrrolidin-1-yl)-5-methyl-1-oxoheptan-4-yl)(methyl)amino)-3-methyl-1-oxobutan-2-yl)-2-azabicyclo[2.2.1]heptane-3-carboxamide] | 66 | 60.6 | 5.43 | 13.5 | 6.1 | 
